Data reported in patent publication US9115101B2 (Genentech, Inc., priority 2012, dated 2015).

molecular target: T1, RORc ligand binding domain (Homo sapiens, UniProt P51449); assay: In Vitro RORc Ligand Binding Assay (25-[3H]hydroxycholesterol radioligand filtration); conditions: In Vitro RORc Ligand Binding Assay; Table 4; read-out: RORc IC50
T1 construct: host or cells: E. coli
T1 sequence (P51449 269-508 limits assumed): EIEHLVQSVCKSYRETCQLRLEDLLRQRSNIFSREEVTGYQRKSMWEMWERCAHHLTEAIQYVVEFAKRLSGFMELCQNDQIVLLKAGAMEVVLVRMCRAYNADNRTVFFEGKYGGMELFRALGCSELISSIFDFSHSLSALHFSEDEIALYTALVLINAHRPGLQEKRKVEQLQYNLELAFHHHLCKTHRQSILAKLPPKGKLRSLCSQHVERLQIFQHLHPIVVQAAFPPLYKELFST

Compound | IC50
CC(=O)N1C[C@@H]2CN(c3ccc(CN4[C@@H](C)CCC(c5ccccc5)S4(=O)=O)c(F)c3)C[C@@H]2C1 (stereo partly drawn) [Example 245, 1-{(3aR,6aS)-5-[3-Fluoro-4-((3S)-methyl-1,1-dioxo-6-phenyl-[1,2]thiazinan-2-ylmethyl)-phenyl]-hexahydro-pyrrolo[3,4-c]pyrrol-2-yl}-ethanone] | 189 nM
C[C@H]1CCC(c2ccccc2)S(=O)(=O)N1Cc1ccc(N2CCC(c3nnc[nH]3)CC2)cc1F (single isomer, unassigned) [Example 226] | 281 nM
C[C@H]1CCC(c2ccccc2)S(=O)(=O)N1Cc1ccc(C(=O)NCC2CCOCC2)cc1 (stereo partly drawn) [Example 292, 4-((3S)-Methyl-1,1-dioxo-6-phenyl-[1,2]thiazinan-2-ylmethyl)-N-(tetrahydro-pyran-4-ylmethyl)-benzamide] | 660 nM
C[C@H]1CCC(c2ccccc2)S(=O)(=O)N1Cc1ccc(N2CCC(c3nnc[nH]3)CC2)cc1F (single isomer, unassigned) [Example 225] | 150 nM
CC(=O)N1CCN(c2ccc(CN3[C@@H](C)CCC(c4ccccc4)S3(=O)=O)c(F)c2)C[C@@H]1C(=O)O (stereo partly drawn) [Example 261, 1-Acetyl-4-[3-fluoro-4-((3S)-methyl-1,1-dioxo-6-phenyl-[1,2]thiazinan-2-ylmethyl)-phenyl]-piperazine-2-carboxylic acid] | 379 nM
C[C@H]1CCC(c2ccccc2)S(=O)(=O)N1Cc1ccc(N2CCn3cncc3C2)cc1F (single isomer, unassigned) [Example 155] | 175 nM
C[C@H]1CCC(c2ccccc2)S(=O)(=O)N1Cc1ccc(C(=O)N2CCN(C)C(=O)C2)cc1 (stereo partly drawn) [Example 363, 1-Methyl-4-[4-((3S)-methyl-1,1-dioxo-6-phenyl-[1,2]thiazinan-2-ylmethyl)-benzoyl]-piperazin-2-one] | 2430 nM
CC(=O)N1CC2(C1)CN(C(=O)c1ccc(CN3[C@@H](C)CCC(c4ccccc4)S3(=O)=O)cc1)C2 (stereo partly drawn) [Example 366, 1-{6-[4-((3S)-Methyl-1,1-dioxo-6-phenyl-[1,2]thiazinan-2-ylmethyl)-benzoyl]-2,6-diaza-spiro[3.3]hept-2-yl}-ethanone] | 5280 nM
CNC(=O)C1CN(C(=O)c2ccc(CN3[C@@H](C)CCC(c4ccccc4)S3(=O)=O)cc2)CCO1 (stereo partly drawn) [Example 299, 4-[4-((3S)-Methyl-1,1-dioxo-6-phenyl-[1,2]thiazinan-2-ylmethyl)-benzoyl]-morpholine-2-carboxylic acid methylamide] | 4930 nM
N#CCC(=O)N1CCN(c2ccc(CN3CCCCC(c4ccccc4)S3(=O)=O)cc2)CC1 (single isomer, unassigned) [Example 310, 3-{4-[4-(1,1-Dioxo-7-phenyl-[1,2]thiazepan-2-ylmethyl)-phenyl]-piperazin-1-yl}-3-oxo-propionitrile] | 45 nM
C[C@H]1CCC(c2ccccc2)S(=O)(=O)N1Cc1ccc(N[C@H]2CC[C@@H](C#N)CC2)cc1F (single isomer, unassigned) [Example 110] | 35 nM
C[C@H](O)C(=O)N1C[C@H]2C[C@@H]1CN2c1ccc(CN2[C@@H](C)CCC(c3ccccc3)S2(=O)=O)c(F)c1 (single isomer, unassigned) [Example 183] | 40 nM
COC(=O)[C@@H]1CN(c2ccc(CN3[C@@H](C)CCC(c4ccccc4)S3(=O)=O)c(F)c2)CCN1C(C)=O (stereo partly drawn) [Example 382, (S)-1-Acetyl-4-[3-fluoro-4-((3S)-methyl-1,1-dioxo-6-phenyl-[1,2]thiazinan-2-ylmethyl)-phenyl]-piperazine-2-carboxylic acid methyl ester] | 34 nM
C[C@H]1CCC(c2ccccc2)S(=O)(=O)N1Cc1ccc(C(=O)N2CCn3ccnc3C2)cc1 (stereo partly drawn) [Example 296, (5,6-Dihydro-8H-imidazo[1,2-a]pyrazin-7-yl)-[4-((3S)-methyl-1,1-dioxo-6-phenyl-[1,2]thiazinan-2-ylmethyl)-phenyl]-methanone] | 1290 nM
C[C@H]1CCC(c2ccccc2)S(=O)(=O)N1Cc1ccc(C(=O)NC2CCCC2O)cc1 (stereo partly drawn) [Example 270, N-(2-Hydroxy-cyclopentyl)-4-((3S)-methyl-1,1-dioxo-6-phenyl-[1,2]thiazinan-2-ylmethyl)-benzamide] | 2440 nM
C[C@H]1CCC(c2ccccc2)S(=O)(=O)N1Cc1ccc(N2CCC(c3ccn[nH]3)CC2)cc1F (single isomer, unassigned) [Example 212] | 16 nM
C[C@H]1CCC(c2ccccc2)S(=O)(=O)N1Cc1ccc(C(=O)N[C@@H]2CCN(S(C)(=O)=O)C2)cc1 (stereo partly drawn) [Example 388, N-((R)-1-Methanesulfonyl-pyrrolidin-3-yl)-4-((3S)-methyl-1,1-dioxo-6-phenyl-[1,2]thiazinan-2-ylmethyl)-benzamide] | 3520 nM
CC(=O)N1CCN(c2ccc(CN3[C@@H](C)CCC(c4ccccc4Cl)S3(=O)=O)c(F)c2)CC1 (single isomer, unassigned) [Example 201] | 183 nM
C[C@H]1CCC(c2ccccc2)S(=O)(=O)N1Cc1ccc(C(=O)N(C)CC2CCCO2)cc1 (stereo partly drawn) [Example 283, N-Methyl-4-((3S)-methyl-1,1-dioxo-6-phenyl-[1,2]thiazinan-2-ylmethyl)-N-(tetrahydro-furan-2-ylmethyl)-benzamide] | 1310 nM

More lines, now with the values ahead:

IC50 | Compound
89 nM | C[C@H]1CCC(c2ccccc2)S(=O)(=O)N1Cc1ccc(N2CC3(CCOCC3)C2)cc1F (single isomer, unassigned) [Example 85]
5 nM | CS(=O)(=O)N1CCC(Nc2ccc(CN3CCCCC(c4ccccc4)S3(=O)=O)c(F)c2)CC1 (single isomer, unassigned) [Example 347, [4-(1,1-Dioxo-7-phenyl-[1,2]thiazepan-2-ylmethyl)-3-fluoro-phenyl]-(1-methanesulfonyl-piperidin-4-yl)-amine]
26 nM | CC(=O)N1CCN(c2ccc(CN3[C@@H](C)CCCC(c4ccccc4)S3(=O)=O)c(F)c2)CC1 (single isomer, unassigned) [Example 322]
94 nM | CS(=O)(=O)N1CCC(Oc2ccc(CN3CCOCC(c4ccccc4)S3(=O)=O)c(F)c2)CC1 (single isomer, unassigned) [Example 56, 5-(2-fluoro-4-((1-(methylsulfonyl)piperidin-4-yl)oxy)benzyl)-3-phenyl-1,4,5-oxathiazepane 4,4-dioxide]
592 nM | O=C(CO)N1CCN(c2ccc(CN3CCCCC(c4ccccc4)S3(=O)=O)c(F)c2)CC1 (single isomer, unassigned) [Example 313, 1-{4-[4-(1,1-Dioxo-7-phenyl-[1,2]thiazepan-2-ylmethyl)-3-fluoro-phenyl]-piperazin-1-yl}-2-hydroxy-ethanone]
8 nM | CC(=O)N1CCN(c2ccc(CN3[C@H](C)CCCC(c4ccccc4)S3(=O)=O)c(F)c2)CC1 (single isomer, unassigned) [Example 319]
192 nM | CC(=O)N1CCN(c2ccc(CN3CC4(CC4)CC(c4ccccc4)S3(=O)=O)c(F)c2)CC1 (single isomer, unassigned) [Example 196, 1-{4-[4-(6,6-Dioxo-7-phenyl-6-thia-5-aza-spiro[2.5]oct-5-ylmethyl)-3-fluoro-phenyl]-piperazin-1-yl}-ethanone]
86 nM | CS(=O)(=O)N1CCC(Oc2ccc(CN3CCCC(c4ccccc4)S3(=O)=O)c(F)c2)CC1 (single isomer, unassigned) [Example 3]
686 nM | C[C@H]1CCC(c2ccccc2)S(=O)(=O)N1Cc1ccc(OC2CCN(S(C)(=O)=O)CC2)nc1 (single isomer, unassigned) [Example 34]
1090 nM | CC(=O)N1CCN(c2ccc(CN3C(C)CCCC(c4ccccc4)S3(=O)=O)c(F)c2)CC1 (single isomer, unassigned) [Example 328, 1-{4-[3-Fluoro-4-(3-methyl-1,1-dioxo-7-phenyl-[1,2]thiazepan-2-ylmethyl)-phenyl]-piperazin-1-yl}-ethanone]
403 nM | CC(=O)N1CCN(c2ccc(CN3CC(C)CC(c4ccccc4)S3(=O)=O)c(F)c2)CC1 (single isomer, unassigned) [Example 68, 1-{4-[3-Fluoro-4-(4-methyl-1,1-dioxo-6-phenyl-[1,2]thiazinan-2-ylmethyl)-phenyl]-piperazin-1-yl}-ethanone]
57 nM | O=S1(=O)C(c2ccccc2)CC2(CC2)CN1Cc1ccc(N2CCC(n3cnnc3)CC2)cc1F (single isomer, unassigned) [Example 259, 5-[2-Fluoro-4-(4-[1,2,4]triazol-4-yl-piperidin-1-yl)-benzyl]-7-phenyl-6-thia-5-aza-spiro[2.5]octane 6,6-dioxide]

same assay, conditions: read-out: RORc IC50

IC50 | Compound
437 nM | CC(=O)N1CCC(C(=O)Nc2ccc(CN3[C@@H](C)CCC(c4ccccc4)S3(=O)=O)c(F)c2)CC1 (stereo partly drawn) [Example 457, 1-Acetyl-piperidine-4-carboxylic acid [3-fluoro-4-((3S)-methyl-1,1-dioxo-6-phenyl-[1,2]thiazinan-2-ylmethyl)-phenyl]-amide]
346 nM | C[C@H]1CCC(c2ccccc2)S(=O)(=O)N1Cc1ccc(N2CCn3c(cnc3C(N)=O)C2)cc1F (stereo partly drawn) [Example 403, 7-[3-Fluoro-4-((3S)-methyl-1,1-dioxo-6-phenyl-[1,2]thiazinan-2-ylmethyl)-phenyl]-5,6,7,8-tetrahydro-imidazo[1,5-a]pyrazine-3-carboxylic acid amide]
325 nM | C[C@H]1CCC(c2ccccc2)S(=O)(=O)N1Cc1ccc(OCCN2CCCC2=O)cc1 (stereo partly drawn) [Example 439, 1-{2-[4-((3S)-Methyl-1,1-dioxo-6-phenyl-[1,2]thiazinan-2-ylmethyl)-phenoxy]-ethyl}-pyrrolidin-2-one]
12 nM | C[C@H]1CCC(c2ccccc2)S(=O)(=O)N1Cc1ccc(N2C[C@@H]3[C@H](C2)[C@H]3n2cnnc2)cc1F (stereo partly drawn) [Example 440, (1R,5S,6S)-3-[3-Fluoro-4-((3S)-methyl-1,1-dioxo-6-phenyl-[1,2]thiazinan-2-ylmethyl)-phenyl]-6-[1,2,4]triazol-4-yl-3-aza-bicyclo[3.1.0]hexane]
